Reference: US20190256474A1, “N-PHENYL-2-(3-PHENYL-6-OXO-1,6-DIHYDROPYRIDAZIN-1-YL)ACETAMIDE DERIVATIVES FOR TREATING CYSTIC FIBROSIS” (Proteostasis Therapeutics, Inc., priority 2016, published 2019)

Biological target: T1, ΔF508-CFTR (Homo sapiens, UniProt P13569, DEL508-508)
T1 construct: Primary lung epithelial cells homozygous for the Cystic Fibrosis-causing ΔF508 mutation were differentiated; endogenous in cells; host or cells: primary human bronchial epithelial cells (hBE), ΔF508/ΔF508
Assay: hBE equivalent current (Ieq) assay, CFTR activity
Type: cell-based
Conditions: relative to a CFTR amplifier at 3 μM, ΔF508 homozygous hBE, 24 h treatment; for Activity 3 μM: compound at 3 μM; for Activity 10 μM: compound at 10 μM
Procedure: Primary lung epithelial cells homozygous for the Cystic Fibrosis-causing ΔF508 mutation were differentiated for a minimum of 4 weeks in an air-liquid interface on Costar 24 well HTS filter plates prior to the equivalent current (Ieq) measurements. Cells were apically mucus-washed for 30 minutes 24 h prior to treatment with compounds. The basolateral media was removed and replaced with media containing the compound of interest diluted to its final concentration from DMSO stocks. Treated cells were incubated at 37° C. and 5% CO2 for 24 hours. At the end of the treatment period, the media was changed to the Ieq experimental solution for 2 hours before the experiment and plates are maintained in a CO2-free incubator during this period. The plates containing the cells were then placed in pre-warmed heating blocks at 36° C.±0.5 for 15 minutes before measurements are taken. The transepithelial voltage (VT) and conductance (GT) were measured using a custom 24 channel current clamp (TECC-24) with 24 well electrode manifold. The Ieq assay measurements were made following additions with standardized time periods:
1. The baseline VT and GT values were measured for approximately 20 minutes.
2. Benzamil was added to block ENaC for 15 minutes.
3. Forskolin plus VX-770 were added to maximally activate ΔF508-CFTR for 27 minutes.
4. Bumetanide was added to inhibit the NaK2Cl cotransporter and shut-off secretion of chloride.
The activity data captured was the area under the curve (AUC) for the traces of the equivalent chloride current. The AUC was collected from the time of the forskolin/VX-770 addition until the inhibition by bumetanide addition. Correction in response to compound treatment was scored as the increase in the AUC for compound-treated samples over that of vehicle-treated samples.
The results are shown below in Table 1. + indicates activity <150% of a CFTR amplifier with compound at concentration shown and amplifier at 3 μM; ++ indicates activity >150% of a CFTR amplifier with compound at concentration shown and amplifier at 3 μM.

T1 sequence (P13569 with tags, fused parts or gaps DEL508-508): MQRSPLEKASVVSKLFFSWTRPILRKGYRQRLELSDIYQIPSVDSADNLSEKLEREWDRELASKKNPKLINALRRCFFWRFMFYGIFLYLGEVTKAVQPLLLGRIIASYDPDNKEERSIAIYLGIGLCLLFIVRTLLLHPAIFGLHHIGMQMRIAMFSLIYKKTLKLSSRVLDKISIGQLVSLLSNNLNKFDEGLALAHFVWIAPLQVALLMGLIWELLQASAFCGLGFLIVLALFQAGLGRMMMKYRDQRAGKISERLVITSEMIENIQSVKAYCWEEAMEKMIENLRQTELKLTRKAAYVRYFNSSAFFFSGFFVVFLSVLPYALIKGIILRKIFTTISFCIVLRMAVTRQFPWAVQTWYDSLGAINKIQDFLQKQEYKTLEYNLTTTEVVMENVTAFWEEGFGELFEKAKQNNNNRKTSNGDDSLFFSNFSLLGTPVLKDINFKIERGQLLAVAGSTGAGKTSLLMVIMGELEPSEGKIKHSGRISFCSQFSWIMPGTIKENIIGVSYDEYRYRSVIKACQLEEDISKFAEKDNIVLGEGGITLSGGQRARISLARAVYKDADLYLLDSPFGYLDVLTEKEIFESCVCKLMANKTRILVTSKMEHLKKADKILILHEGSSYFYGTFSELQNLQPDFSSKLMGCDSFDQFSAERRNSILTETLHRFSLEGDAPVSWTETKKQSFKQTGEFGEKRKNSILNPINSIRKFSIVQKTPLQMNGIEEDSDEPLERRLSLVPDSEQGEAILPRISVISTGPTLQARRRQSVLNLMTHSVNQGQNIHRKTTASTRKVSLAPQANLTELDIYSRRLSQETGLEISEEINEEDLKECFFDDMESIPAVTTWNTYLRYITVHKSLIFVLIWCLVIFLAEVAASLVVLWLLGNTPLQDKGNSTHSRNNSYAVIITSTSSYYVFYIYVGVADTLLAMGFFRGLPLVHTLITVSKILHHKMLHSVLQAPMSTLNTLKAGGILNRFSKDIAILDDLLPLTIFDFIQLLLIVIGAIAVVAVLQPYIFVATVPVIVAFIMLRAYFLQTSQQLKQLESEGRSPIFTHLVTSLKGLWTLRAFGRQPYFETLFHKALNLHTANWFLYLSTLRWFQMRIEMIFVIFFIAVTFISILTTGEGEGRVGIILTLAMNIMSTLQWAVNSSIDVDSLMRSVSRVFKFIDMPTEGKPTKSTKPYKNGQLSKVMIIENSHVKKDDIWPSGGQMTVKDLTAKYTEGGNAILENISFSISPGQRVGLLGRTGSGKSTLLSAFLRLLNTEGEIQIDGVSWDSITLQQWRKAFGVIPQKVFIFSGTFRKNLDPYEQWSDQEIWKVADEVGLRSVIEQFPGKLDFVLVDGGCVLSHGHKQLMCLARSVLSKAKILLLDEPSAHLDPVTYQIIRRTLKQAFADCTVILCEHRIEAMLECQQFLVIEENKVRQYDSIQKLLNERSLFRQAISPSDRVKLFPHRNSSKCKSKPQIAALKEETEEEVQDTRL

SMILES	Activity 3 μM	Activity 10 μM
CC(C(=O)Nc1cc(F)cc(F)c1)n1nc(-c2cccc(Cl)c2)ccc1=O (centres unmarked) [Compound 1, 2-[3-(3-Chlorophenyl)-6-oxo-1,6-dihydropyridazin-1-yl]-N-(3,5-difluorophenyl)propanamide]	++ (activity >150% of a CFTR amplifier with compound at concentration shown and amplifier at 3 μM)	++ (activity >150% of a CFTR amplifier with compound at concentration shown and amplifier at 3 μM)
CC(C(=O)Nc1cc(F)cc(F)c1)n1nc(-c2cccc(OC(F)(F)F)c2)ccc1=O (centres unmarked) [Compound 2, N-(3,5-Ddifluorophenyl)-2-[6-oxo-3-[3-(trifluoromethoxy)phenyl]-1,6-dihydropyridazin-1-yl]propanamide]	+ (activity <150% of a CFTR amplifier with compound at concentration shown and amplifier at 3 μM)	+ (activity <150% of a CFTR amplifier with compound at concentration shown and amplifier at 3 μM)
COc1cc(OC)cc(-c2ccc(=O)n(C(C)C(=O)Nc3cc(F)cc(F)c3)n2)c1 (centres unmarked) [Compound 3, N-(3,5-difluorophenyl)-2-[3-(3,5-dimethoxyphenyl)-6-oxo-1,6-dihydropyridazin-1-yl]propanamide]	++ (activity >150% of a CFTR amplifier with compound at concentration shown and amplifier at 3 μM)	++ (activity >150% of a CFTR amplifier with compound at concentration shown and amplifier at 3 μM)
CC(C(=O)Nc1cc(F)cc(F)c1)n1nc(-c2cccc(N(C)C)c2)ccc1=O (centres unmarked) [Compound 4, N-(3,5-Difluorophenyl)-2-[3-[3-(dimethylamino)phenyl]-6-oxo-1,6-dihydropyridazin-1-yl]propanamide]	–	+ (activity <150% of a CFTR amplifier with compound at concentration shown and amplifier at 3 μM)
CC(C(=O)Nc1cc(F)cc(F)c1)n1nc(-c2cccc(-c3ccccc3)c2)ccc1=O (centres unmarked) [Compound 5, N-(3,5-Difluorophenyl)-2-[6-oxo-3-(3-phenylphenyl)-1,6-dihydropyridazin-1-yl]propanamide]	+ (activity <150% of a CFTR amplifier with compound at concentration shown and amplifier at 3 μM)	+ (activity <150% of a CFTR amplifier with compound at concentration shown and amplifier at 3 μM)
COc1cccc(NC(=O)C(C)n2nc(-c3cccc(OC)c3)ccc2=O)c1 (centres unmarked) [Compound 6, N-(3-Methoxyphenyl)-2-[3-(3-methoxyphenyl)-6-oxo-1,6-dihydropyridazin-1-yl]propanamide]	+ (activity <150% of a CFTR amplifier with compound at concentration shown and amplifier at 3 μM)	+ (activity <150% of a CFTR amplifier with compound at concentration shown and amplifier at 3 μM)
COc1cccc(-c2ccc(=O)n(C(C)C(=O)Nc3cccc(C(F)(F)F)c3)n2)c1 (centres unmarked) [Compound 7, 2-[3-(3-Methoxyphenyl)-6-oxo-1,6-dihydropyridazin-1-yl]-N-[3-(trifluoromethyl)phenyl]propanamide]	+ (activity <150% of a CFTR amplifier with compound at concentration shown and amplifier at 3 μM)	+ (activity <150% of a CFTR amplifier with compound at concentration shown and amplifier at 3 μM)
COc1cccc(-c2ccc(=O)n(C(C)C(=O)Nc3ccccc3C(C)(C)C)n2)c1 (centres unmarked) [Compound 9, N-(2-tert-Butylphenyl)-2-[3-(3-methoxyphenyl)-6-oxo-1,6-dihydropyridazin-1-yl]propanamide]	+ (activity <150% of a CFTR amplifier with compound at concentration shown and amplifier at 3 μM)	+ (activity <150% of a CFTR amplifier with compound at concentration shown and amplifier at 3 μM)
COc1cccc(-c2ccc(=O)n(C(C)C(=O)Nc3cccc(C(C)(C)C)c3)n2)c1 (centres unmarked) [Compound 10, N-(3-tert-Butylphenyl)-2-[3-(3-methoxyphenyl)-6-oxo-1,6-dihydropyridazin-1-yl]propanamide]	–	++ (activity >150% of a CFTR amplifier with compound at concentration shown and amplifier at 3 μM)
COc1cccc(-c2ccc(=O)n(C(C)C(=O)Nc3ccc(C(C)(C)C)cc3)n2)c1 (centres unmarked) [Compound 11, N-(4-tert-Butylphenyl)-2-[3-(3-methoxyphenyl)-6-oxo-1,6-dihydropyridazin-1-yl]propanamide]	–	+ (activity <150% of a CFTR amplifier with compound at concentration shown and amplifier at 3 μM)
COc1cccc(-c2ccc(=O)n(C(C)C(=O)Nc3ccccc3Cl)n2)c1 (centres unmarked) [Compound 12, N-(2-Chlorophenyl)-2-[3-(3-methoxyphenyl)-6-oxo-1,6-dihydropyridazin-1-yl]propanamide]	+ (activity <150% of a CFTR amplifier with compound at concentration shown and amplifier at 3 μM)	+ (activity <150% of a CFTR amplifier with compound at concentration shown and amplifier at 3 μM)
COc1cccc(-c2ccc(=O)n(C(C)C(=O)Nc3cccc(Cl)c3)n2)c1 (centres unmarked) [Compound 13, N-(3-Chlorophenyl)-2-[3-(3-methoxyphenyl)-6-oxo-1,6-dihydropyridazin-1-yl]propanamide]	++ (activity >150% of a CFTR amplifier with compound at concentration shown and amplifier at 3 μM)	++ (activity >150% of a CFTR amplifier with compound at concentration shown and amplifier at 3 μM)
COc1cccc(-c2ccc(=O)n(C(C)C(=O)Nc3ccc(Cl)cc3)n2)c1 (centres unmarked) [Compound 14, N-(4-Chlorophenyl)-2-[3-(3-methoxyphenyl)-6-oxo-1,6-dihydropyridazin-1-yl]propanamide]	–	++ (activity >150% of a CFTR amplifier with compound at concentration shown and amplifier at 3 μM)
COc1cccc(-c2ccc(=O)n(C(C)C(=O)Nc3ccccc3)n2)c1 (centres unmarked) [Compound 15, 2-[3-(3-Methoxyphenyl)-6-oxo-1,6-dihydropyridazin-1-yl]-N-phenylpropanamide]	+ (activity <150% of a CFTR amplifier with compound at concentration shown and amplifier at 3 μM)	+ (activity <150% of a CFTR amplifier with compound at concentration shown and amplifier at 3 μM)
COc1cccc(-c2ccc(=O)n(CC(=O)Nc3cc(F)cc(F)c3)n2)c1 [Compound 16, N-(3,5-Difluorophenyl)-2-[3-(3-methoxyphenyl)-6-oxo-1,6-dihydropyridazin-1-yl]acetamide]	–	+ (activity <150% of a CFTR amplifier with compound at concentration shown and amplifier at 3 μM)
COc1cccc(-c2ccc(=O)n(C(C)C(=O)N(C)c3cc(F)cc(F)c3)n2)c1 (centres unmarked) [Compound 17, N-(3,5-Difluorophenyl)-2-[3-(3-methoxyphenyl)-6-oxo-1,6-dihydropyridazin-1-yl]-N-methylpropanamide]	+ (activity <150% of a CFTR amplifier with compound at concentration shown and amplifier at 3 μM)	+ (activity <150% of a CFTR amplifier with compound at concentration shown and amplifier at 3 μM)
COc1cccc(-c2ccc(=O)n(C(C)(C)C(=O)Nc3cc(F)cc(F)c3)n2)c1 [Compound 18, N-(3,5-Difluorophenyl)-2-(3-(3-methoxyphenyl)-6-oxopyridazin-1(6H)-yl)-2-methylpropanamide]	+ (activity <150% of a CFTR amplifier with compound at concentration shown and amplifier at 3 μM)	+ (activity <150% of a CFTR amplifier with compound at concentration shown and amplifier at 3 μM)
Cc1ccc(-c2ccc(=O)n(C(C)C(=O)Nc3cc(F)cc(F)c3)n2)cc1O (centres unmarked) [Compound 19, N-(3,5-Difluorophenyl)-2-[3-(3-hydroxy-4-methylphenyl)-6-oxo-1,6-dihydropyridazin-1-yl]propanamide]	–	+ (activity <150% of a CFTR amplifier with compound at concentration shown and amplifier at 3 μM)
COc1cccc(-c2cc(C)c(=O)n(C(C)C(=O)Nc3cc(F)cc(F)c3)n2)c1 (centres unmarked) [Compound 20, N-(3,5-Difluorophenyl)-2-[3-(3-methoxyphenyl)-5-methyl-6-oxo-1,6-dihydropyridazin-1-yl]propanamide]	+ (activity <150% of a CFTR amplifier with compound at concentration shown and amplifier at 3 μM)	+ (activity <150% of a CFTR amplifier with compound at concentration shown and amplifier at 3 μM)
